# Patent publication US6737383B1, “Herbicidal oxadiazolidines” (priority 1999, dated 2004)
# Columns and labels:
# purple nutsedge = assay: Test B pre/postemergence purple nutsedge; assay type: in vivo, Cyperus rotundus; settings: for Nutsedge plant response rating: scale of 0 to 10 where 0 is no effect and 10 is complete control
# Procedure, shortened: (§1)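 Herbicidal effect was estimated by eye on a ten-point control scale after plants spent twelve to sixteen days in a greenhouse following soil or foliar treatment. Foliar sprays targeted plants at one to four leaves; all doses were formulated in a non-phytotoxic solvent with surfactant.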
# giant foxtail = assay: Test B pre/postemergence giant foxtail; assay type: in vivo, Setaria faberii; settings: for Giant foxtail plant response rating: scale of 0 to 10 where 0 is no effect and 10 is complete control
# Procedure, shortened: as §1
# morningglory = assay: Test B pre/postemergence morningglory; assay type: in vivo, Ipomoea hederacea; settings: for Morningglory plant response rating: scale of 0 to 10 where 0 is no effect and 10 is complete control
# Procedure, shortened: as §1
# rape = assay: Test B pre/postemergence rape; assay type: in vivo, Brassica napus; settings: for Rape plant response rating: scale of 0 to 10 where 0 is no effect and 10 is complete control
# Procedure, shortened: as §1
# cocklebur = assay: Test B pre/postemergence cocklebur; assay type: in vivo, Xanthium strumarium; settings: for Cocklebur plant response rating: scale of 0 to 10 where 0 is no effect and 10 is complete control
# Procedure, shortened: as §1
# pigweed = assay: Test B pre/postemergence pigweed; assay type: in vivo, Amaranthus retroflexus; settings: for Redroot pigweed plant response rating: scale of 0 to 10 where 0 is no effect and 10 is complete control
# Procedure, shortened: as §1
# rice = assay: Test B flood test rice; assay type: in vivo, Oryza sativa
# Procedure, shortened: (§2)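 Each value is a visual injury score relative to controls, with 10 meaning complete control and 0 no effect. Evaluation took place twelve to sixteen days after the 2-leaf-stage plants were treated and kept in the greenhouse.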
# bedstraw = assay: Test B pre/postemergence bedstraw; assay type: in vivo, Galium aparine; settings: Preemergence
# Procedure, shortened: as §1
# corn = assay: Test B pre/postemergence corn; assay type: in vivo, Zea mays; settings: for Corn plant response rating: scale of 0 to 10 where 0 is no effect and 10 is complete control
# Procedure, shortened: as §1
# duck salad = assay: Test B flood test duck salad; assay type: in vivo, Heteranthera limosa
# Procedure, shortened: as §2
# bamyardgrass = assay: Test B flood test barnyardgrass; assay type: in vivo, Echinochloa crus-galli
# Procedure, shortened: as §2
# blackgrass = assay: Test B pre/postemergence blackgrass; assay type: in vivo, Alopecurus myosuroides; settings: for Blackgrass plant response rating: scale of 0 to 10 where 0 is no effect and 10 is complete control
# Procedure, shortened: as §1
# sugar beet = assay: Test B pre/postemergence sugar beet; assay type: in vivo, Beta vulgaris; settings: for Sugarbeets plant response rating: scale of 0 to 10 where 0 is no effect and 10 is complete control
# Procedure, shortened: as §1
# velvetleaf = assay: Test B pre/postemergence velvetleaf; assay type: in vivo, Abutilon theophrasti; settings: for Velvetleaf plant response rating: scale of 0 to 10 where 0 is no effect and 10 is complete control
# Procedure, shortened: as §1
# surinam grass = assay: Test B pre/postemergence surinam grass; assay type: in vivo, Brachiaria decumbens; settings: for B. signalgrass plant response rating: scale of 0 to 10 where 0 is no effect and 10 is complete control
# Procedure, shortened: as §1
# [1] = Postemergence, Rate 125 g/ha, scale 0 to 10, 0 is no effect, 10 is complete control
# [2] = Postemergence, Rate 250 g/ha, scale 0 to 10, 0 is no effect, 10 is complete control
# [3] = Preemergence, Rate 62 g/ha, scale 0 to 10 (0 no effect, 10 complete control)
# [4] = Rate 500 g/ha, Postemergence, scale 0 to 10, 0 no effect, 10 complete control
# [5] = Rate 62 g/ha, flood test species, Pre-emergence, visual evaluation after twelve to sixteen days
# [6] = Rate 125 g/ha, under heading Pre-emergence, flood test species, visual evaluation after twelve to sixteen days
# [7] = Rate 250 g/ha, Pre-emergence, flood-test species, scale 0 to 10, 0 is no effect, 10 is complete control
# [8] = Rate 500 g/ha, Pre-emergence, flood test species, scale 0 to 10 (0 no effect, 10 complete control)
structure (smiles),measurement,setting,value
Cc1nsc(Cl)c1Cn1c(=O)on(C(=O)N(c2ccccc2)C(C)C)c1=O [Compound 374],"Plant response rating, Nutsedge",purple nutsedge; [1],0
same,"Plant response rating, Nutsedge",purple nutsedge; [2],0
same,"Plant response rating, Nutsedge",purple nutsedge; [3],0
same,Nutsedge plant response rating (0 to 10 scale),"purple nutsedge; Preemergence, Rate 125 g/ha",0
same,Nutsedge plant response rating,"purple nutsedge; Preemergence, Rate 250 g/ha",0
same,Nutsedge plant response rating,"purple nutsedge; Preemergence, Rate 500 g/ha",0
same,Nutsedge plant response rating,"purple nutsedge; Rate 62 g/ha, Postemergence",0
same,"Plant response rating, Nutsedge",purple nutsedge; [4],0
same,"Plant response rating, Giant foxtail",giant foxtail; [1],0
same,"Plant response rating, Giant foxtail",giant foxtail; [2],2
same,"Plant response rating, Giant foxtail",giant foxtail; [3],8
same,Giant foxtail plant response rating (0 to 10 scale),"giant foxtail; Preemergence, Rate 125 g/ha",9
same,Giant foxtail plant response rating,"giant foxtail; Preemergence, Rate 250 g/ha",10
same,Giant foxtail plant response rating,"giant foxtail; Preemergence, Rate 500 g/ha",10
same,Giant foxtail plant response rating,"giant foxtail; Rate 62 g/ha, Postemergence",0
same,"Plant response rating, Giant foxtail",giant foxtail; [4],8
same,"Plant response rating, Morningglory",morningglory; [1],5
same,"Plant response rating, Morningglory",morningglory; [2],10
same,"Plant response rating, Morningglory",morningglory; [3],0
same,Morningglory plant response rating (0 to 10 scale),"morningglory; Preemergence, Rate 125 g/ha",0
same,Morningglory plant response rating,"morningglory; Preemergence, Rate 250 g/ha",0
same,Morningglory plant response rating,"morningglory; Preemergence, Rate 500 g/ha",0
same,"Plant response rating, Morningglory",morningglory; [4],10
same,"Plant response rating, Rape",rape; [1],2
same,"Plant response rating, Rape",rape; [2],2
same,"Plant response rating, Rape",rape; [3],0
same,Rape plant response rating (0 to 10 scale),"rape; Preemergence, Rate 125 g/ha",0
same,Rape plant response rating,"rape; Preemergence, Rate 250 g/ha",2
same,Rape plant response rating,"rape; Preemergence, Rate 500 g/ha",7
same,Rape plant response rating,"rape; Rate 62 g/ha, Postemergence",0
same,"Plant response rating, Rape",rape; [4],7
same,"Plant response rating, Cocklebur",cocklebur; [1],0
same,"Plant response rating, Cocklebur",cocklebur; [2],0
same,"Plant response rating, Cocklebur",cocklebur; [3],0
same,Cocklebur plant response rating (0 to 10 scale),"cocklebur; Preemergence, Rate 125 g/ha",0
same,Cocklebur plant response rating,"cocklebur; Preemergence, Rate 250 g/ha",0
same,Cocklebur plant response rating,"cocklebur; Preemergence, Rate 500 g/ha",0
same,Cocklebur plant response rating,"cocklebur; Rate 62 g/ha, Postemergence",0
same,"Plant response rating, Cocklebur",cocklebur; [4],0
same,"Plant response rating, Redroot pigweed",pigweed; [1],0
same,"Plant response rating, Redroot pigweed",pigweed; [2],2
same,"Plant response rating, Redroot pigweed",pigweed; [3],0
same,Redroot pigweed plant response rating (0 to 10 scale),"pigweed; Preemergence, Rate 125 g/ha",0
same,Redroot pigweed plant response rating,"pigweed; Preemergence, Rate 250 g/ha",0
same,Redroot pigweed plant response rating,"pigweed; Rate 62 g/ha, Postemergence",0
same,"Plant response rating, Redroot pigweed",pigweed; [4],6
same,"Plant response rating, Rice (0 to 10 scale, 0 is no effect, 10 is complete control)",rice; [5],0
same,"Rice plant response rating (0 to 10 scale, 0 is no effect, 10 is complete control)",rice; [6],0
same,Rice plant response rating,rice; [7],0
same,Rice plant response rating,rice; [8],0
same,"Plant response rating, Bedstraw","bedstraw; Rate 62 g/ha, scale 0 to 10 (0 no effect, 10 complete control)",0
same,Bedstraw plant response rating (0 to 10 scale),bedstraw; Rate 125 g/ha,0
same,Bedstraw plant response rating,"bedstraw; Rate 250 g/ha, scale of 0 to 10 where 0 is no effect and 10 is complete control",0
same,"Plant response rating, Corn",corn; [1],0
same,"Plant response rating, Corn",corn; [2],0
same,"Plant response rating, Corn",corn; [3],0
same,Corn plant response rating (0 to 10 scale),"corn; Preemergence, Rate 125 g/ha",0
same,Corn plant response rating,"corn; Preemergence, Rate 250 g/ha",0
same,Corn plant response rating,"corn; Preemergence, Rate 500 g/ha",0
same,Corn plant response rating,"corn; Rate 62 g/ha, Postemergence",0
same,"Plant response rating, Corn",corn; [4],0
same,"Plant response rating, Ducksalad (0 to 10 scale, 0 is no effect, 10 is complete control)",duck salad; [5],0
same,"Ducksalad plant response rating (0 to 10 scale, 0 is no effect, 10 is complete control)",duck salad; [6],0
same,Ducksalad plant response rating,duck salad; [7],0
same,Ducksalad plant response rating,duck salad; [8],0
same,"Plant response rating, Barnyardgrass (0 to 10 scale, 0 is no effect, 10 is complete control)",bamyardgrass; [5],0
same,"Barnyardgrass plant response rating (0 to 10 scale, 0 is no effect, 10 is complete control)",bamyardgrass; [6],0
same,Barnyardgrass plant response rating,bamyardgrass; [7],0
same,Barnyardgrass plant response rating,bamyardgrass; [8],0
same,"Plant response rating, Blackgrass",blackgrass; [1],0
same,"Plant response rating, Blackgrass",blackgrass; [2],0
same,"Plant response rating, Blackgrass",blackgrass; [3],0
same,Blackgrass plant response rating (0 to 10 scale),"blackgrass; Preemergence, Rate 125 g/ha",2
same,Blackgrass plant response rating,"blackgrass; Preemergence, Rate 250 g/ha",5
same,Blackgrass plant response rating,"blackgrass; Preemergence, Rate 500 g/ha",6
same,Blackgrass plant response rating,"blackgrass; Rate 62 g/ha, Postemergence",0
same,"Plant response rating, Sugarbeets",sugar beet; [1],0
same,"Plant response rating, Sugarbeets",sugar beet; [2],0
same,"Plant response rating, Sugarbeets",sugar beet; [3],0
same,Sugarbeets plant response rating (0 to 10 scale),"sugar beet; Preemergence, Rate 125 g/ha",0
same,Sugarbeets plant response rating,"sugar beet; Preemergence, Rate 250 g/ha",0
same,Sugarbeets plant response rating,"sugar beet; Preemergence, Rate 500 g/ha",4
same,Sugarbeets plant response rating,"sugar beet; Rate 62 g/ha, Postemergence",0
same,"Plant response rating, Sugarbeets",sugar beet; [4],4
same,"Plant response rating, Velvetleaf",velvetleaf; [1],0
same,"Plant response rating, Velvetleaf",velvetleaf; [2],0
same,"Plant response rating, Velvetleaf",velvetleaf; [3],0
same,Velvetleaf plant response rating (0 to 10 scale),"velvetleaf; Preemergence, Rate 125 g/ha",0
same,Velvetleaf plant response rating,"velvetleaf; Preemergence, Rate 250 g/ha",0
same,Velvetleaf plant response rating,"velvetleaf; Preemergence, Rate 500 g/ha",0
same,Velvetleaf plant response rating,"velvetleaf; Rate 62 g/ha, Postemergence",0
same,"Plant response rating, Velvetleaf",velvetleaf; [4],1
same,"Plant response rating, B. signalgrass",surinam grass; [1],0
same,"Plant response rating, B. signalgrass",surinam grass; [2],0
same,"Plant response rating, B. signalgrass",surinam grass; [3],0
same,"B. signalgrass plant response rating (0 to 10 scale, 0 is no effect, 10 is complete control)","surinam grass; Preemergence, Rate 125 g/ha",0
same,B. signalgrass plant response rating,"surinam grass; Preemergence, Rate 250 g/ha",2
same,B. signalgrass plant response rating,"surinam grass; Preemergence, Rate 500 g/ha",5
same,B. signalgrass plant response rating,"surinam grass; Rate 62 g/ha, Postemergence",0
same,"Plant response rating, B. signalgrass",surinam grass; [4],0
